Results: patent US11235043B2, “Vaccines against antigens involved in therapy resistance and methods of using same” (Duke University, priority 2012, dated 2022)

Tested on: 4T1-HER2 expressing tumors
Experiment: Survivin expression in the mouse 4T1-HER2 tumor model
Assay type: in vivo

CS(=O)(=O)CCNCc1ccc(-c2ccc3ncnc(Nc4ccc(OCc5cccc(F)c5)c(Cl)c4)c3c2)o1 [lapatinib]
survivin expression: no change in survivin expression
